Data as given in patent US9775902B2, “Compounds and methods for treatment of stroke” (FIBROGEN, INC, priority 2006, dated 2017).
Read-outs that look alike come from different tables or passages of the source. Marks after values point to notes of the source that are not given here.

Columns and labels:
VEGF = experiment: Plasma VEGF in mice after intravenous injection; format: in vivo, Swiss Webster mice; conditions: mouse plasma, 20 mg/kg i.v., four hours after injection; for fold induction at 20 mg/kg: iv, 4 h, read-out: VEGF Fold Increase
Protocol: (§1) The effect of compounds of the present invention on expression of cytoprotective and neuroprotective factors in vivo was evaluated as follows. In one series of experiments, male Swiss Webster mice (29-34 g) were administered various compounds of the present invention via intravenous injection into the caudal tail vein. Animals treated by intravenous injection received a 6 ml/kg volume of either 5% Dextrose with an equimolar amount of NaOH or Meglumine (vehicle control) or 20 mg/kg of a compound of the present invention in 5% dextrose with an equimolar amount of NaOH or Meglumine. Four hours after injection, the animals were anesthetized and exsanguinated. Plasma samples were collected in EDTA and heparin coated microtainer tubes. Plasma samples were assayed for erythropoietin and VEGF using commercially-available ELISA kits purchased from R & D Systems (Minneapolis Minn.).

erythropoietin (EPO) [1] = experiment: EPO expression in Hep3B cells (QUANTIKINE immunoassay of conditioned media); format: cell-based, Human; conditions: for Fold Increase Over Control: EPO, vs 1% DMSO control; for EPO: conditioned media after overnight incubation with compound
Protocol: The effect of compounds of the present invention on expression of cytoprotective and neuroprotective factors in cells was evaluated as follows. Human cells derived from hepatocarcinoma (Hep3B) tissue (see, e.g., American Type Culture Collection, Manassas Va.) were seeded into 35 mm culture dishes and grown at 37° C., 20% O2, 5% CO2 in Minimal Essential Medium (MEM), Earle's balanced salt solution (Mediatech Inc., Herndon Va.), 2 mM L-glutamine, 0.1 mM non-essential amino acids, 1 mM sodium pyruvate, and 10% FBS. When cell layers reached confluence, the media was replaced with OPTI-MEM media (Invitrogen Life Technologies, Carlsbad Calif.) and cell layers were incubated for approximately 24 hours in 20% O2, 5% CO2 at 37° C. Various compounds of the present invention or 1% DMSO (negative control) were then added to existing media and incubation was continued overnight.
Following incubation, the conditioned media was collected from cell cultures and analyzed for erythropoietin (EPO) expression using a QUANTIKINE immunoassay (R&D Systems, Inc., Minneapolis Minn.) according to the manufacturer's instructions.

[2] = tested on: vascular endothelial growth factor (VEGF); experiment: VEGF expression in Kelly neuroblastoma cells; format: cell-based; conditions: for VEGF: conditioned media after overnight incubation
Protocol: (§2) The effect of compounds of the present invention on expression of cytoprotective and neuroprotective factors in neuroblastoma cells was evaluated as follows. Kelly neuroblastoma cells (see, e.g., DSMZ, cat# ACC-355, Braunschweig Germany) were treated with various compounds of the present invention or 1% DMSO (negative control). Following an overnight incubation, the conditioned media was collected from cell cultures and analyzed for erythropoietin (EPO) and vascular endothelial growth factor (VEGF) expression using a QUANTIKINE immunoassay (R&D Systems, Inc., Minneapolis Minn.) according to the manufacturer's instructions.

[3] = tested on: C57BL/6 mice, permanent occlusion of the MCA; experiment: Permanent middle cerebral artery occlusion (pMCAO) in C57BL/6 mice: infarct volume and edema; format: in vivo; conditions: C57BL/6 mice pMCAO, 20-60 mg/kg i.v.; for inhibition in vivo at up to 20 mg/kg: Mus musculus, iv, 24 h, 24 hours after MCA occlusion, read-out: Percent Reduction in Infarct Volume
Protocol: The effect of compounds of the present invention on infarct volume and edema associated with stroke was examined in an animal model of ischemic stroke. In these studies, mice were subjected to permanent occlusion of the middle cerebral artery. Mice were anesthetized intraperitoneally with avertin (0.5 mg/g). Mice were then immobilized in a rodent stereotaxic frame (Kopf Instruments, Tujunga Calif.) and maintained with avertin as needed. The surgical area of the head was swabbed with 70% ethanol and a lateral incision was made between the right orbit and the right ear. […] The distal course of the middle cerebral artery (MCA) was visible through the translucent skull. A small burr-hole craniotomy was performed with a micro-drill (Fine Science Tools, Foster City Calif.). The meninges/dura was removed and the MCA was coagulated by bipolar diathermy. The muscle and soft tissue were replaced and the incision closed with vet-bond adhesive (3M, St. Paul Minn.). These studies were performed in two different mouse models of pMCAO as described below.
In one series of experiments, male C57BL/6 mice (25-35 g) were subjected to permanent occlusion of the MCA as described above. Compounds of the present invention were administered by intravenous injection at various times before or after MCA occlusion (see Table 7). Animals administered compound by intravenous injection received a 6 ml/kg volume of either 5% Dextrose with an equimolar amount of Meglumine (vehicle control) or 20-60 mg/kg of a compound of the present invention in 5% dextrose with an equimolar amount of Meglumine. Body temperature of the animals was maintained by use of a heating pad both during and after surgery. Twenty-four hours after MCA occlusion animals were euthanized with CO2 and their brains removed. After removal, the brain was sliced in 7 coronal sections, each 1 mm thick. The sections were placed rostral side down in a petri dish and stained with 1% Triphenyl tetrazolium chloride for 20 minutes at 37° C. for determination of infarct volume. Brain sections were then digitally photographed and analyzed for changes in infarct volume and extent of edema. Infarct volumes were determined by measuring the infarcted (i.e., non-stained) areas of each brain section and multiplying this value by the section thickness. Extent of edema was determined by the net increase in volume of the ipsilateral cortex compared to that of the contralateral cortex of brain sections.
The effect of compounds of the present invention administered at various times following the onset of stroke was examined further as follows. In these studies, changes in infarct volume were measured using an animal model of stroke when compounds of the present invention were administered from 0 to 8 hours following permanent MCA occlusion. In one series of experiments, male C57BL/6 mice (25-35 g) were subjected to permanent occlusion of the MCA as described above. Compound F was administered to the animals by a single intravenous bolus injection at various times up to 5 hours after MCA occlusion (see Table 8 below). Animals administered compound by intravenous injection received a 6 ml/kg volume of either 5% Dextrose with an equimolar amount of NaOH (vehicle control) or 60 mg/kg of Compound F in 5% dextrose with an equimolar amount of NaOH. Body temperature of the animals was maintained by use of a heating pad both during and after surgery. Changes in infarct volumes were determined as described above.
In another set of experiments, male C57BL/6 mice (25-35 g) were subjected to permanent occlusion of the MCA as described above. Compound F was administered by single intravenous bolus injection at various times up to 8 hours after MCA occlusion (see Table 9 below). Animals administered compound by intravenous injection received a 6 ml/kg volume of either 5% Dextrose with an equimolar amount of Meglumine (vehicle control) or 60 mg/kg of Compound F in 5% dextrose with an equimolar amount of Meglumine. […]

erythropoietin (EPO) [4] = experiment: EPO expression in Kelly neuroblastoma cells; format: cell-based; conditions: for EPO: conditioned media after overnight incubation
Protocol: as §2

erythropoietin = experiment: Plasma EPO in mice after intravenous injection; format: in vivo, Swiss Webster mice; conditions: mouse plasma, 20 mg/kg i.v., four hours after injection; for fold induction at 20 mg/kg: iv, 4 h, read-out: EPO Fold Increase
Protocol: as §1

| Structure (SMILES) | fold induction at 20 mg/kg (VEGF) | VEGF (VEGF) [pg/mL] | Fold Increase Over Control (erythropoietin (EPO) [1]) | EPO (erythropoietin (EPO) [1]) [mIU/ml] | VEGF Fold Increase [2] | VEGF [2] [pg/mL] | inhibition in vivo at up to 20 mg/kg ([3]; compound given 0 hr) [%] | EPO Fold Increase (erythropoietin (EPO) [4]) | EPO (erythropoietin (EPO) [4]) [mIU/ml] | fold induction at 20 mg/kg (erythropoietin) | EPO (erythropoietin; human EPO ELISA kit (*)) [mIU/ml] | inhibition in vivo at up to 20 mg/kg ([3]; compound given 4 hr after occlusion) [%] | EPO (erythropoietin; mouse EPO ELISA kit (**)) [pg/mL] | Percent Reduction in Edema ([3]; compound given 0 hr) |
| --- | --- | --- | --- | --- | --- | --- | --- | --- | --- | --- | --- | --- | --- | --- |
| O=C(O)CNC(=O)c1ncc2cc(Oc3ccccc3)ccc2c1O [Compound AC, [(4-Hydroxy-7-phenoxy-isoquinoline-3-carbonyl)-amino]acetic acid] | 2.15 | 70 | 10.8 | 160.1 | 15.8 | 2503.8 | 17 | 11.9 | 73.8 | 2940 | 294 |  |  |  |
| O=C(O)CNC(=O)c1nc(Br)c2ccsc2c1O [Compound AE, [(4-Bromo-7-hydroxy-thieno[3,2-c]pyridine-6-carbonyl)-amino]-acetic acid] | 1.45 | 29 | 3.0 | 12.6 | 2.7 | 3710.0 |  | 3.6 | 95.5 |  |  | 63 | 3825 |  |
| Cc1nc2ccc(Oc3ccc4c(O)c(C(=O)NCC(=O)O)nc(C)c4c3)cc2o1 [Compound AF, {[4-Hydroxy-1-methyl-7-(2-methyl-benzooxazol-6-yloxy)-isoquinoline-3-carbonyl]-amino}-acetic acid] | 2.83 | 82 | 15.3 | 101.6 | 3.5 | 5124 | 21 | 12.24 | 231.3 | 21.3 |  |  | 192 |  |
| O=Cc1nc(C(=O)NCC(=O)O)c(O)c2cc(Oc3ccccc3)ccc12 [Compound AK, [(1-Formyl-4-hydroxy-6-phenoxy-isoquinoline-3-carbonyl)-amino]-acetic acid] | 1.12 | 47 | 14.9 | 35.3 | 3.9 | 5698 | 13 | 2.23 | 42.2 | 62.8 |  |  | 2763 | −12* % |
| N#Cc1nc(C(=O)NCC(=O)O)c(O)c2ccc(Cc3ccccc3)cc12 [Compound AR, [(7-Benzyl-1-cyano-4-hydroxy-isoquinoline-3-carbonyl)-amino]-acetic acid] | 0.83 | 29 | 21.8 | 82.7 | 10.8 | 14745 |  | 32.17 | 842.9 | 22.8 |  |  | 11000 |  |
| CCc1c(O)c(C(=O)NCC(=O)O)nc2cc(Cl)ccc12 [Compound AT, [(7-Chloro-4-ethyl-3-hydroxy-quinoline-2-carbonyl)-amino]-acetic acid] | 1.02 | 43 | 30.0 | 81.0 | 8.3 | 11350 |  | 31.08 | 587.5 | 3.84 |  |  | 169 |  |
| O=C(O)CNC(=O)c1nc2cc(-c3ccc(Cl)cc3)sc2cc1O [Compound Q, {[2-(4-Chloro-phenyl)-6-hydroxy-thieno[3,2-b]pyridine-5-carbonyl]-amino}-acetic acid] | 1.28 | 50 | 4.8 | 37.1 | 4.4 | 6369 |  | 2.80 | 52.9 | 1.61 |  |  | 17.1 |  |
| N#Cc1nc(C(=O)NCC(=O)O)c(O)c2ccc(Cl)cc12 [Compound S, [(7-Chloro-1-cyano-4-hydroxy-isoquinoline-3-carbonyl)-amino]-acetic acid] | 0.68 | 15 | 10.1 | 12.5 | 1.9 | 725 |  | 2.89 | 40.4 | 40.8 |  |  | 460.6 |  |
| O=C(O)CNC(=O)c1nc2cc(Cl)ccc2c(I)c1O [Compound T, [(7-Chloro-3-hydroxy-4-iodo-quinoline-2-carbonyl)-amino]acetic acid] | 1.24 | 31 | 49.3 | 100.7 | 5.6 | 8159 |  | 15.83 | 299.1 | 4.65 |  |  | 498 |  |
